{"source": "patent US6818445B2", "about": "(Synaptic Pharmaceutical Corporation, priority 1994, dated 2004)", "key": {"human α2C receptor": {"target": "T1, human α2C receptor (Homo sapiens, UniProt P18825)", "T1 sequence (P18825 1-462)": "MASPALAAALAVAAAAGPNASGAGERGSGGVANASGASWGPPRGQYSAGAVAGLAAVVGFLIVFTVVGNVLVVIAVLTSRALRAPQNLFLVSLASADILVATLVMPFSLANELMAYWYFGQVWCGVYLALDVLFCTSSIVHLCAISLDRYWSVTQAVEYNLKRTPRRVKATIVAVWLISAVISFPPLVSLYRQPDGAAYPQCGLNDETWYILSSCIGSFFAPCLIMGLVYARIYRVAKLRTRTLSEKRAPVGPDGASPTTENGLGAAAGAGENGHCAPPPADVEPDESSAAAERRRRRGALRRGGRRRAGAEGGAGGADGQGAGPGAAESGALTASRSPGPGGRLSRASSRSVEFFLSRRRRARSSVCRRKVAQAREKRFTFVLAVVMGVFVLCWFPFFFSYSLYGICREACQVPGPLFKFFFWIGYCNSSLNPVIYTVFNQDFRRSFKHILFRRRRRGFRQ", "test": "Binding to cloned human α2C adrenergic receptor, [3H]rauwolscine"}, "human 5HT1Dβ receptor": {"target": "human 5HT1Dβ receptor (Homo sapiens, UniProt P28222)", "sequence (P28222 whole entry)": "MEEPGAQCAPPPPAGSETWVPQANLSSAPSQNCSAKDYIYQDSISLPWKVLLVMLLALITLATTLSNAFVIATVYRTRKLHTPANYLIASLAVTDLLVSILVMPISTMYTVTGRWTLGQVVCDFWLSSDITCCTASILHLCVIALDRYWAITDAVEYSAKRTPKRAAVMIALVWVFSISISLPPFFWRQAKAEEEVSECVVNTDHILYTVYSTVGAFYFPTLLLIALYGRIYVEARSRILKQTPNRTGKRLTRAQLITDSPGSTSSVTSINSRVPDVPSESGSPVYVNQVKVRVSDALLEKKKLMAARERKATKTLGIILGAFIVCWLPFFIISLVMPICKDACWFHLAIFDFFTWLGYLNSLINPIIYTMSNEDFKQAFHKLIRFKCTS", "test": "Binding to human 5HT1Dβ receptor, [3H]serotonin", "conditions": "cloned human receptor"}, "human α2A receptor": {"target": "T2, human α2A receptor (Homo sapiens, UniProt P08913)", "T2 sequence (P08913 1-465)": "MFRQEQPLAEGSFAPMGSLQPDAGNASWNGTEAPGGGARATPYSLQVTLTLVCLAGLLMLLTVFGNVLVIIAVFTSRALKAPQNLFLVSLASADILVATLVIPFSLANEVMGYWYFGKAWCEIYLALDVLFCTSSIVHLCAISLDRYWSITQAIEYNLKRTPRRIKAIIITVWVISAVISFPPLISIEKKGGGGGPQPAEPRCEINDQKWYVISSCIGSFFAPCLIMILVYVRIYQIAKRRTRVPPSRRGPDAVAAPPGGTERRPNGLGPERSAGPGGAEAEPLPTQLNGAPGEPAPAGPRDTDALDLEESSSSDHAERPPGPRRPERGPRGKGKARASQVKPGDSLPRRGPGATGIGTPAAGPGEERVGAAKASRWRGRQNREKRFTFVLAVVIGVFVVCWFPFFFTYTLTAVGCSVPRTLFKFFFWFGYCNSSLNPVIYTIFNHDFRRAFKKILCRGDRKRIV", "test": "Binding to cloned human α2A adrenergic receptor, [3H]rauwolscine"}, "human 5HT2 receptor": {"target": "human 5HT2 receptor (Homo sapiens, UniProt P28223)", "sequence (P28223 whole entry)": "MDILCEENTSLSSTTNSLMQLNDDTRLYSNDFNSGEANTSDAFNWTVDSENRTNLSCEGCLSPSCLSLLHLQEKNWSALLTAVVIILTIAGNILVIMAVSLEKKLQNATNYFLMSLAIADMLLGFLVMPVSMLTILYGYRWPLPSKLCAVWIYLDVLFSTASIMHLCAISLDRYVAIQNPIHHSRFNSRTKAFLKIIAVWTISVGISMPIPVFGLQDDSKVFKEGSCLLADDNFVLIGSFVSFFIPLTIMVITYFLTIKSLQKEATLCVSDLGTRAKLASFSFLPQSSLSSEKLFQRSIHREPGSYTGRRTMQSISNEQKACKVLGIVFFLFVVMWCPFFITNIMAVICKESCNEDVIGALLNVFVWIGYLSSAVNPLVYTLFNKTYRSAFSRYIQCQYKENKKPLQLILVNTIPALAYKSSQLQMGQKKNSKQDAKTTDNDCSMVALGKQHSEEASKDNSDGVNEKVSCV", "test": "Binding to human 5HT2 receptor, [3H]ketanserin", "conditions": "cloned human receptor"}, "human 5HT1Dα receptor": {"target": "human 5HT1Dα receptor (Homo sapiens, UniProt P28221)", "sequence (P28221 whole entry)": "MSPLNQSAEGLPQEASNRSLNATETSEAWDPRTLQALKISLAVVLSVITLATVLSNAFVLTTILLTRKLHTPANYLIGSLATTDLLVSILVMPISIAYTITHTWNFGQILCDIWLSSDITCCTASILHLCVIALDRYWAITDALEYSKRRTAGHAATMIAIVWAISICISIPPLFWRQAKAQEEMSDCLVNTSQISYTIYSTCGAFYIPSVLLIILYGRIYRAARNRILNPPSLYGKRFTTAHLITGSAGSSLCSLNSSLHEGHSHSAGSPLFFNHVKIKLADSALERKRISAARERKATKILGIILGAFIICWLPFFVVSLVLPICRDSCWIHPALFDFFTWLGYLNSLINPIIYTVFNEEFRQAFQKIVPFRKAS", "test": "Binding to human 5HT1Dα receptor, [3H]serotonin", "conditions": "cloned human receptor"}, "5HT1a receptor": {"target": "T3, 5HT1a receptor (Homo sapiens, UniProt P08908)", "T3 sequence (P08908 1-422)": "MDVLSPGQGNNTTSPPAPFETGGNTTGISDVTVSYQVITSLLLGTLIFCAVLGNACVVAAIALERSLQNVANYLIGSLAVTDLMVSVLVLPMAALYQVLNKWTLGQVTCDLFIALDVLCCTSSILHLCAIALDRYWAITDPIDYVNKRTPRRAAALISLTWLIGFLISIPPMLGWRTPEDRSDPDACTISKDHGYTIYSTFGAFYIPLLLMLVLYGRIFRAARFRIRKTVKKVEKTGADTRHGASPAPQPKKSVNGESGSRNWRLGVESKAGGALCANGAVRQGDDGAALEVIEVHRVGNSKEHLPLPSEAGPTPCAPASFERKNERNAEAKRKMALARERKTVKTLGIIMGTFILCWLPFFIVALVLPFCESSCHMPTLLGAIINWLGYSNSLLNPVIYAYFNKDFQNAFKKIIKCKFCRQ", "test": "Binding to cloned human 5HT1a receptor"}, "human α2B receptor": {"target": "T4, human α2B receptor (Homo sapiens, UniProt P18089)", "T4 sequence (P18089 1-450)": "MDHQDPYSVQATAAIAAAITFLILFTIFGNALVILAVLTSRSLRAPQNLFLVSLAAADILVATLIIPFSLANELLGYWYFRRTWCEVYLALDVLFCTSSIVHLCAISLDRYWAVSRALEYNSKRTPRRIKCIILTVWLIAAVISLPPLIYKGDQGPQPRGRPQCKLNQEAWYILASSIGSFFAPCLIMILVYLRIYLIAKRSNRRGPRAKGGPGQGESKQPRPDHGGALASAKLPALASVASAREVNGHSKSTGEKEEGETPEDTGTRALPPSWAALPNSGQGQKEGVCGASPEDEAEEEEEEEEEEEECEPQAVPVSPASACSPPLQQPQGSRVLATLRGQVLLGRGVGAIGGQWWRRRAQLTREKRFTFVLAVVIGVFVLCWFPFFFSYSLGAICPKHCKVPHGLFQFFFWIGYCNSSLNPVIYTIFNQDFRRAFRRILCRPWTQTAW", "test": "Binding to cloned human α2B adrenergic receptor, [3H]rauwolscine"}, "[1]": {"target": "human dopamine D3 receptor (Homo sapiens, UniProt P35462)", "sequence (P35462 whole entry)": "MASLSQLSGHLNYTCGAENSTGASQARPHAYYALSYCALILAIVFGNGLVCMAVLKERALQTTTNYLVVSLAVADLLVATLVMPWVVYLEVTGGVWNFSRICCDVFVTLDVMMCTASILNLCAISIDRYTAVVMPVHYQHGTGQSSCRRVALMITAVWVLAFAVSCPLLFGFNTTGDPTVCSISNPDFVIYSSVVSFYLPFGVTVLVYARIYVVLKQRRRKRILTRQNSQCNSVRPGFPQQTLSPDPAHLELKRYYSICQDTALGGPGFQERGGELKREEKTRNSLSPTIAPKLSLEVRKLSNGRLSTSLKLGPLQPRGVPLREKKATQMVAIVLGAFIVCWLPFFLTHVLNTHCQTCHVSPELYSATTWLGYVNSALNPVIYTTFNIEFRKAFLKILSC", "test": "Binding to human dopamine D3 receptor, [3H]spiperone", "conditions": "cloned human receptor"}, "[2]": {"tested_on": "NPY-induced feeding behavior in satiated rats", "test": "NPY-induced food intake in satiated rats", "assay_type": "in vivo, rat", "conditions": "compound 30 mg/kg i.p., then 300 pmole NPY i.c.v.; 4 hours after NPY", "experimental": "The rats are individually housed in stainless steel cages and maintained on an 11:13 h light-dark cycle (lights off at 18:00 h) at a controlled temperature of 21-23° C. at all times. Water and food (NAFAG lab chow pellets NAFAG, Gossau, Switzerland) are available ad libidum.\nThe guide cannula is placed on the dura. Injection cannulas extend the guide cannulas −3.8 mm ventrally to the skull surface. Animals are allowed at least 4 days of recovery postoperatively before being used in the experiments. Cannula placement is checked postoperatively by testing all rats for their drinking response to a 50 ng intracerebroventricular (i.c.v.) injection of angiotensin II. Only rats which drink at least 2.5 ml of water within 30 min. after angiotensin II injection are used in the feeding studies.\nAll injections are made in the morning 2 hours after light onset. Peptides are injected in artificial cerebrospinal fluid (ACSF) in a volume of 5 μl.\nPellets are then removed from the cage subsequently at each selected time point and replaced with a new set of preweighed pellets. The food intake of animals treated with test compound may be calculated as a percentage of the food intake of control animals i.e., animals treated with vehicle. Alternatively, food intake for each group of animals subjected to a particular experimental condition may be expressed as the mean±S.E.M. Statistical analysis is performed by analysis of variance using the Student-Newman-Keuls test.\nFood intake is reported as the mean±S.E.M. intake for a group of animals."}}, "data": [{"smiles": "Cl.Cl.Nc1ccccc1S(=O)(=O)NCC1CCC(CNCC2CCc3ccccc3C2)CC1", "note": "(stereo not drawn) [Compound 22]", "values": [{"measurement": "Receptor (pKi) α2c", "setting": "human α2C receptor", "value": 7.15}, {"measurement": "Receptor (pKi) 5HT1Dβ", "setting": "human 5HT1Dβ receptor", "value": 5.41}, {"measurement": "Receptor (pKi) α2a", "setting": "human α2A receptor", "value": 7.05}, {"measurement": "Receptor (pKi) 5HT2", "setting": "human 5HT2 receptor", "value": 5.99}, {"measurement": "Receptor (pKi) 5HT1Dα", "setting": "human 5HT1Dα receptor", "value": 5.98}, {"measurement": "Receptor (pKi) 5HT1a", "setting": "5HT1a receptor", "value": 6.56}, {"measurement": "Receptor (pKi) α2b", "setting": "human α2B receptor", "value": 6.43}]}, {"smiles": "Cl.O=[N+]([O-])c1ccccc1S(=O)(=O)NC[C@H]1CC[C@H](CNCC2CCc3ccccc3C2)CC1", "note": "(stereo partly drawn) [Compound 20]", "values": [{"measurement": "Receptor (pKi) α2c", "setting": "human α2C receptor", "value": 7.39}, {"measurement": "Receptor (pKi) 5HT1Dβ", "setting": "human 5HT1Dβ receptor", "value": 5.37}, {"measurement": "Receptor (pKi) α2a", "setting": "human α2A receptor", "value": 7.31}, {"measurement": "Receptor (pKi) 5HT2", "setting": "human 5HT2 receptor", "value": 5.93}, {"measurement": "Receptor (pKi) 5HT1Dα", "setting": "human 5HT1Dα receptor", "value": 5.94}, {"measurement": "Receptor (pKi) α2b", "setting": "human α2B receptor", "value": 6.96}, {"measurement": "Receptor (pKi) D3", "setting": "[1]", "value": 6.35}]}, {"smiles": "Cl.O=S(=O)(NC[C@H]1CC[C@H](CNCC2CCc3ccccc3C2)CC1)c1cccc2ccccc12", "note": "(stereo partly drawn) [Compound 19]", "values": [{"measurement": "Food intake (g) mean ± S.E.M., NPY + compound", "setting": "[2]", "value": "1.5 ± 0.6", "unit": "g"}, {"measurement": "Receptor (pKi) α2a", "setting": "human α2A receptor", "value": 6.74}, {"measurement": "Receptor (pKi) 5HT2", "setting": "human 5HT2 receptor", "value": 6.55}, {"measurement": "Receptor (pKi) 5HT1Dα", "setting": "human 5HT1Dα receptor", "value": 6.04}, {"measurement": "Receptor (pKi) 5HT1a", "setting": "5HT1a receptor", "value": 5.54}, {"measurement": "Receptor (pKi) α2b", "setting": "human α2B receptor", "value": 6.58}, {"measurement": "Receptor (pKi) D3", "setting": "[1]", "value": 6.69}]}]}
